# Measurements from US20220290085A1, “CELL-SENSORY BIOSCAFFOLDS, FABRICATION METHODS AND APPLICATIONS OF SAME” (BOARD OF TRUSTEES OF THE UNIVERSITY OF ARKANSAS, priority 2019, published 2022).
# How the values were obtained:
# [1] = tested on: breast cancer cells (MCF7); test: Doxorubicin drug cytotoxicity in cell culture; type: cell-based, human; settings: drug cytotoxicity assessment, FIG. 23
# Description: Impedance Measurement for Doxorubicin Drug Effect on Breast Cancer Cell Lines: This test was performed to investigate the effect of a well-known chemotherapy drug Doxorubicin on two different cancer cell lines. Doxorubicin (DOX, C27H29NO11), also called Adriamycin™, is a popular chemotherapy drug for treating several types of cancer including breast cancer via triggering the cancer cell death. This drug was used to quantify the drug effect on breast cancer cells' metabolism in response to stresses from different dosages of the DOX, via monitoring the impedance signal change from the cancer cells before and after the DOX treatment. The drug cytotoxicity was assessed to determine the concentration of 2.0 μM, which the cancer cells start to die in a proper pace that can enable us to quantitatively characterize the DOX effect on the cancer cell's metabolism and apoptosis directly on the smart bioscaffold, as shown in FIG. 23.
# MDA-MB231 = test: Impedance on TiO2 nanowire bioscaffold sensor of DOX-treated MDA-MB231 cells; type: cell-based, human; settings: DOX 2 μM 24 hrs, FIG. 25
# Description: (§1) To investigate the cell impedance change due to the DOX, the two cell lines were first cultured to reach about 90% confluence and then the DOX (2 μM) was added over two time-intervals, about 24 hours and about 48 hours. The cells were then harvested using trypsin and counted using the hemocytometer and trypan blue stain to control the cell number. The cells were then suspended in about 10 mL of 1×PBS with the TiO2 nanowires sensor for about 35 minutes, and the impedance was tested likewise from about 40 kHz to about 1 MHz. The DOX is supposed to decrease the MCF7 impedance due to cell's resistance to the DOX. This is because the overexpressed P-glycoprotein 1 (P-gp), also called multidrug resistance protein 1 (MDR1) or ATP-binding cassette sub-family B member 1 (ABCB1) or cluster of differentiation 243 (CD243), can pump the foreign molecules out of the MCF7 cell.
# (§2) The second set of experiment was done as in the first step, with glucose (5.5 mM) in the cell suspensions to investigate the cell impedance correspondence to glucose effect after being treated with DOX. The biosensors were done after about 35 minutes in the cell suspension, with the impedance parameters same as described previously.
# MCF7 [2] = settings: MCF7 vs MDA-MB231; cited from earlier work
# MCF7 [3] = test: Impedance on TiO2 nanowire bioscaffold sensor of DOX-treated MCF7 cells; type: cell-based, human; settings: DOX 2 μM 24 hrs, then glucose 5.5 mM for 35 minutes, 1×PBS, FIG. 24
# Description: as §1, §2
smiles,measurement,setting,value
COc1cccc2c1C(=O)c1c(O)c3c(c(O)c1C2=O)C[C@@](O)(C(=O)CO)C[C@@H]3O[C@H]1C[C@H](N)[C@H](O)[C@H](C)O1 [Doxorubicin],concentration at which the cancer cells start to die in a proper pace,[1],2.0 µM
same,response to glucose after being pre-treated with DOX,MDA-MB231; glucose 5.5 mM,no significant response to glucose
same,impedance on the bioscaffold after DOX pre-treatment and glucose incubation,"MDA-MB231; then glucose 5.5 mM for 35 minutes, 1×PBS",lower impedance
same,resistance of MCF7 to DOX compared with MDA-MB231,MCF7 [2],more resistive
same,impedance on the bioscaffold at low frequency after DOX pre-treatment and glucose incubation,MCF7 [3],higher impedance
